The numbers were not newly measured in patent publication US20030171388A1, “Cosmetic or dermatological cream composition, the preparation and the use thereof” (priority 2003, published 2003), which cites them from elsewhere.

For this series, the system named is liver cell cultures.

With `C[N+](C)(C)C[C@H](O)CC(=O)[O-]` [L-carnitine, 3-carboxy-2-hydroxy-N,N,N-trimethyl-1-propanamium-hydroxide], the “effect on the membrane potential of the mitochondrion” value is given as “did not cause a loss in the membrane potential of the mitochondrion” and the “prevention of cell deaths” value is recorded as “able to prevent cell deaths”.
